The numbers were not newly measured in article PMC8463260 (Acta Pharmaceutica Sinica. B, 2020), which cites them from elsewhere.

For series [1] the following is noted: in vitro bioactivity compared to native insulin; ref [26],[28]-[31].
The conditions of series [2]: multimerization and serum albumin association; ref [5],[6].

On to insulin degludec, for which, in series [1], the “in vitro potency, fold lower vs native insulin” value is recorded as 6–8 fold.

As for “insulin detemir: long-acting insulin derivative with hydrophobic modification on B29 lysine”, the in vivo half-life in series [2] is 20 to 48 h.
